Results taken from patent US12528812B2 (Genentech, Inc., priority 2020, dated 2026).
Like-named read-outs stand apart in the source and are kept apart here.

What was measured:
[1] = target: T1, recombinant human JAK1 kinase domain protein (Residues 854-1154) (Homo sapiens, UniProt P23458); assay: JAK1 biochemical assay (LabChip mobility shift, Ki); details: read-out: Biochem JAK1 Ki
T1 construct: human JAK1 kinase domain protein (Residues 854-1154); purchased Proteros Biostructures GmbH (Martinsried, Germany); host or cells: insect cells
T1 sequence (P23458 854-1154): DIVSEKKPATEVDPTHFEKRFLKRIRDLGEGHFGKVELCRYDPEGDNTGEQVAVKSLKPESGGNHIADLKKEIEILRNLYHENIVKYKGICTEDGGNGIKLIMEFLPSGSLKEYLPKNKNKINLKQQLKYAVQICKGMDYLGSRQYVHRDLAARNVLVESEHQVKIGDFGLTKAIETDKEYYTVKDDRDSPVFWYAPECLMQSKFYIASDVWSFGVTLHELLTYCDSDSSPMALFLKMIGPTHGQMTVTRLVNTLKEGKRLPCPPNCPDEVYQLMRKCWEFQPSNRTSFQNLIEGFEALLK

[2] = test system: IL-13-stimulated P-STAT6 in TF-1 human erythroleukemia cells; assay: P-STAT6 TF-1 + IL-13 assay (JAK1 pathway); assay type: cell-based; details: IL13 stimulation, read-out: Cellular JAK1 PSTAT6 TF-1 + IL13
Description: (§1) TF-1 human erythroleukemia cells (ATCC′; Manassas, VA; Catalog No. CRL-2003™) were grown in Roswell Park Memorial Institute (RPMI) medium supplemented with 10% heat-inactivated fetal bovine serum (FBS), 2 ng/mL granulocyte-macrophage colony-stimulating factor, 1× non-essential amino acids (NEAA), and 1 mM sodium pyruvate. The day before the assay, the cultures were transferred to Opti-MEM™, 1×NEAA, 1 mM sodium pyruvate, and 0.5% charcoal-stripped FBS (starve medium). Inhibitor stock solutions (5 mM in DMSO) were serially diluted 1:2 in DMSO to generate a 10-point concentration titration (at 500× test concentration), which was further diluted by a 50-fold dilution in Assay Medium (RPMI containing 1×NEAA and 1 mM sodium pyruvate) to generate a 10× concentration titration (in 2% DMSO). The cells (300,000 cells/well in 35 μL of Assay Medium) were seeded in 384-well Greiner plates. Diluted inhibitor at 10× concentration (5 μL) was added to the cells and the plates were incubated for 30 minutes at 37° C. in a humidified incubator. Cells were stimulated with the human recombinant cytokine at the respective EC90 concentrations, as previously determined for each individual lot. For the phosphorylated signal transducer and activator of transcription 6 (P-STAT6) TF-1+Interleukin-13 (IL-13) assay, 10 μL of 250 ng/mL IL-13 (R&D Systems; Minneapolis, MN) was added to the cells, which were then incubated for 10 minutes at 37° C. For the P-STAT5 TF-1+Erythropoietin (EPO) assay, 10 μL of 110 IU/mL EPO (Gibco Life Technologies, Catalog No. PHC2054) was added to the cells, which were then incubated for […] at 37° C. For both assays, the incubation was followed by addition to the cells of 5 μL of ice-cold 10× cell lysis buffer (Cell Signaling Technologies; Danvers, MA; Catalog No. 9803S) containing 1 mM phenylmethylsulfonyl fluoride (PMSF). Assay plates were frozen at −80° C. for a minimum of 1 hour. In the IL-13 assay, P-STAT6 was measured by coating goat anti-rabbit (GAR) plates (Meso Scale Discovery [MSD]; Rockville, MD; Catalog No. MSD L21RA-1) with rabbit anti-human total STAT6 antibody (Cell Signaling Technologies; Catalog No. 9362S), incubating the cell lysates in the coated plates overnight at 4° C., and then detecting with mouse anti-P-STAT6 (Tyr641) Clone 16E12 antibody (MilliporeSigma; Burlington, MA; Catalog No. 05-590, custom labeled by MSD with SULFO-tag) using standard MSD plate processing, washing, and detection protocols. In the EPO assay, P-STAT5 was detected using the phospho-STAT5a,b Whole Cell Lysate Kit (MSD; Catalog No. K150IGD-1). The electrochemiluminescence (ECL) signal of wells was read on the MESO SECTOR 5600 (MSD) reader.
(§2) Data analysis was performed by subtracting the negative control (cytokine stimulated and 20 μM control inhibitor-treated cells) mean ECL value from the ECL value of all wells, determining percent of control for test compound well ECL values relative to the positive control (cytokine stimulated and DMSO-treated cells) mean ECL value, and determining the IC50 for test compounds with a four-parameter logistic fit model as shown in Equation 4.

[3] = test system: EPO-stimulated P-STAT5 in TF-1 human erythroleukemia cells; assay: P-STAT5 TF-1 + EPO assay (JAK2 pathway); assay type: cell-based; details: Homo sapiens, TF-1, TF-1 cells, EPO stimulation; read-out: Cellular JAK2 PSTAT5 TF-1 + EPO
Description: as §1, §2

[4] = test system: IL-13-stimulated STAT6 phosphorylation in human lung bronchial epithelial BEAS-2B cell line; assay: P-STAT6 BEAS-2B + IL-13 cell assay; assay type: cell-based; details: Homo sapiens, BEAS-2B, BEAS2B cells, IL13 stimulation; read-out: Cellular JAK1 PSTAT6 BEAS2B + IL13
Procedure, shortened: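 BEAS-2B cells grown 48 h at 37 °C, pre-treated 1 h with compound (10-point 1:2 dilution curve), then stimulated 15 min with human recombinant IL-13 (250 ng/mL stock). Lysate P-STAT6 (Tyr641) read by MSD sandwich ELISA with total-STAT6 capture; IC50 from four-parameter logistic fit of control-normalised data.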

[5] = target: Recombinant human JAK2 kinase domain protein (Residues 812-1132) (Homo sapiens, UniProt O60674); assay: JAK2 biochemical assay (LabChip mobility shift, Ki); details: Biochem JAK2 Ki
Chain of Recombinant human JAK2 kinase domain protein (Residues 812-1132) (O60674 812-1132): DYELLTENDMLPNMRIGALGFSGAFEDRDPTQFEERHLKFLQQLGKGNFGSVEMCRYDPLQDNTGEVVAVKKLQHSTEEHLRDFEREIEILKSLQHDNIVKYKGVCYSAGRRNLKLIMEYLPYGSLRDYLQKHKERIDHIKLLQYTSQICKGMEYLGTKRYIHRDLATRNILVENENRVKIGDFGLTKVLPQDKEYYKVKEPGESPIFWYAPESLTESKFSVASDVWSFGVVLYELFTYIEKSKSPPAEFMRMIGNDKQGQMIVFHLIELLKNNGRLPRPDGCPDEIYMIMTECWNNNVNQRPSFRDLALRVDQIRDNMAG

SMILES | Ki [1] [nM] | IC50 ([2]; Homo sapiens, TF-1, TF-1 cells) [nM] | IC50 [3] [nM] | Ki [5] [nM] | IC50 ([2]; TF-1 cells) [nM] | IC50 [4] [nM]
CN1CC(O)(Cn2cc(Oc3ccc(OC(F)F)c(-c4nn(C)cc4NC(=O)c4cnn5cccnc45)c3)cn2)C1 [Example 128, N-[3-[2-(difluoromethoxy)-5-[1-[(3-hydroxy-l-methyl-azetidin-3-yl)methyl]pyrazol-4-yl]oxy-phenyl]-1-methyl-pyrazol-4-yl]pyrazolo[1,5-a]pyrimidine-3-carboxamide] | 0.52 | 51 | 52 | 0.41 | – | 30
Cn1ccc(Oc2ccc(OC(F)F)c(-c3nn(C)cc3NC(=O)c3cnn4cccnc34)c2)n1 [Example 143, N-[3-[2-(difluoromethoxy)-5-(1-methylpyrazol-3-yl)oxy-phenyl]-1-methyl-pyrazol-4-yl]pyrazolo[1,5-a]pyrimidine-3-carboxamide] | 0.69 | 3 | 23 | 0.36 | – | 26
Cc1ccc(Oc2ccc(OC(F)F)c(-c3nn(C)cc3NC(=O)c3cnn4cccnc34)c2)cc1C(=O)N(C)C [Example 49, N-[3-[2-(difluoromethoxy)-5-[3-(dimethylcarbamoyl)-4-methyl-phenoxy]phenyl]-1-methyl-pyrazol-4-yl]pyrazolo[1,5-a]pyrimidine-3-carboxamide] | 0.44 | 5.4 | 8.6 | 0.28 | – | 20
CC(C)N1CC(O)(Cn2cc(Oc3ccc(OC(F)F)c(-c4nn(C)cc4NC(=O)c4cnn5cccnc45)c3)cn2)C1 [Example 201, N-[3-[2-(difluoromethoxy)-5-[1-[(3-hydroxy-1-isopropyl-azetidin-3-yl)methyl]pyrazol-4-yl]oxy-phenyl]-1-methyl-pyrazol-4-yl]pyrazolo[1,5-a]pyrimidine-3-carboxamide] | 0.46 | 14 | 21 | 0.34 | – | 34
Cn1cc(NC(=O)c2cnn3cccnc23)c(-c2cc(Oc3cnn(C4COC4)c3)ccc2OC(F)F)n1 [Example 114, N-[3-[2-(difluoromethoxy)-5-[1-(oxetan-3-yl)pyrazol-4-yl]oxy-phenyl]-1-methyl-pyrazol-4-yl]pyrazolo[1,5-a]pyrimidine-3-carboxamide] | 0.84 | 6 | 29 | 0.49 | – | 29
CN(C)Cc1cncc(Oc2ccc(OC(F)F)c(-c3nn(C)cc3NC(=O)c3cnn4cccnc34)c2)c1 [Example 133, N-[3-[2-(difluoromethoxy)-5-[[5-[(dimethylamino)methyl]-3-pyridyl]oxy]phenyl]-1-methyl-pyrazol-4-yl]pyrazolo[1,5-a]pyrimidine-3-carboxamide] | 1.1 | 13 | 24 | 1.2 | – | 62

Now those with a lower Ki [1], led by results:

Ki [1] [nM] | IC50 ([2]; Homo sapiens, TF-1, TF-1 cells) [nM] | IC50 [3] [nM] | Ki [5] [nM] | IC50 ([2]; TF-1 cells) [nM] | SMILES | IC50 [4] [nM]
0.29 | – | 49 | 0.21 | 26 | CN1CC(O)C(n2cc(Oc3ccc(OC(F)F)c(-c4nn(C)cc4NC(=O)c4cnn5cccnc45)c3)cn2)C1 (stereo not drawn) [Example 178, N-[3-[2-(difluoromethoxy)-5-[1-(4-hydroxy-l-methyl-pyrrolidin-3-yl)pyrazol-4-yl]oxy-phenyl]-1-methyl-pyrazol-4-yl]pyrazolo[1,5-a]pyrimidine-3-carboxamide] | 32
0.28 | 3.3 | 2.1 | 0.2 | – | CC(=O)n1cc(Oc2ccc(OC(F)F)c(-c3nn(C)cc3NC(=O)c3cnn4cccnc34)c2)cn1 [Example 192, N-[3-[5-(1-acetylpyrazol-4-yl)oxy-2-(difluoromethoxy)phenyl]-1-methyl-pyrazol-4-yl]pyrazolo[1,5-a]pyrimidine-3-carboxamide] | 9.3
0.31 | 4.6 | 7.3 | 0.18 | – | Cn1cc(Oc2ccc(OC(F)F)c(-c3nn(C)cc3NC(=O)c3cnn4cccnc34)c2)cn1 [Example 59, N-[3-[2-(difluoromethoxy)-5-(1-methylpyrazol-4-yl)oxy-phenyl]-1-methyl-pyrazol-4-yl]pyrazolo[1,5-a]pyrimidine-3-carboxamide] | 13
0.3 | 7 | 13 | 0.14 | – | Cn1cc(NC(=O)c2cnn3cccnc23)c(-c2cc(Oc3cnn(CCO)c3)ccc2OC(F)F)n1 [Example 113, N-[3-[2-(difluoromethoxy)-5-[1-(2-hydroxyethyl)pyrazol-4-yl]oxy-phenyl]-1-methyl-pyrazol-4-yl]pyrazolo[1,5-a]pyrimidine-3-carboxamide] | 20
0.25 | 5.2 | 3 | 0.26 | – | CN1CC(O)(c2cc(F)cc(Oc3ccc(OC(F)F)c(-c4nn(C)cc4NC(=O)c4cnn5cccnc45)c3)c2)C1 [Example 96, N-[3-[2-(difluoromethoxy)-5-[3-fluoro-5-(3-hydroxy-1-methyl-azetidin-3-yl)phenoxy]phenyl]-1-methyl-pyrazol-4-yl]pyrazolo[1,5-a]pyrimidine-3-carboxamide] | 13
0.28 | 4 | 4.9 | 0.18 | – | CC(O)Cn1cc(Oc2ccc(OC(F)F)c(-c3nn(C)cc3NC(=O)c3cnn4cccnc34)c2)cn1 (racemic) [Example 121, N-[3-[2-(difluoromethoxy)-5-[1-[rac-(2S)-2-hydroxypropyl]pyrazol-4-yl]oxy-phenyl]-1-methyl-pyrazol-4-yl]pyrazolo[1,5-a]pyrimidine-3-carboxamide] | 18
0.4 | 4.6 | 7.6 | 0.24 | – | Cn1cc(NC(=O)c2cnn3cccnc23)c(-c2cc(Oc3cnn(C(F)F)c3)ccc2OC(F)F)n1 [Example 132, N-[3-[2-(difluoromethoxy)-5-[1-(difluoromethyl)pyrazol-4-yl]oxy-phenyl]-1-methyl-pyrazol-4-yl]pyrazolo[1,5-a]pyrimidine-3-carboxamide] | 14
0.24 | 8.2 | 4.8 | 0.25 | – | CN1CC(O)(c2cccc(Oc3ccc(OC(F)F)c(-c4nn(C)cc4NC(=O)c4cnn5cccnc45)c3)c2)C1 [Example 79, N-[3-[2-(difluoromethoxy)-5-[3-(3-hydroxy-l-methyl-azetidin-3-yl)phenoxy]phenyl]-1-methyl-pyrazol-4-yl]pyrazolo[1,5-a]pyrimidine-3-carboxamide] | 8
0.13 | 24 | 68 | 0.076 | – | O=C(Nc1c[nH]nc1-c1cc(Oc2cn[nH]c2)ccc1OC(F)F)c1cnn2cccnc12 [Example 173, N-[3-[2-(difluoromethoxy)-5-(1H-pyrazol-4-yloxy)phenyl]-1H-pyrazol-4-yl]pyrazolo[1,5-a]pyrimidine-3-carboxamide] | 82
